According to PubChem BioAssay (NCI):
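All cell lines were grown in 96-well plates and treated with compound for 48 hours. TGI: concentration producing complete growth inhibition.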 Where a SMILES comes first, the peptide text is derived from it. Bridges are numbered along the chain shown (N, C = ends). [ ]: non-standard residue; d: D form. The star is where a group is joined. ξ: configuration not given here. X26 = O=C(/C=C/C=C/C=C/C=C/C=C/C(=O)*)NC1=C(O)CCC1=O; Pro(4R-Me) = C[C@H]1CN[C@H](C(=O)O)C1; NMeA = CN[C@@H](C)C(=O)O; ξF = NC(Cc1ccccc1)C(=O)O; ξA = CC(N)C(=O)O

Experiments:
Experiment in all cases: NCI anticancer screen, dose series, 48 h
EKVX NSCLC = system: EKVX NSCLC
COLO 205 colon = system: COLO 205 colon
HL-60(TB) leukemia = system: HL-60(TB) leukemia
OVCAR-3 ovarian = system: OVCAR-3 ovarian
SK-MEL-28 melanoma = system: SK-MEL-28 melanoma
NCI-H522 lung = system: NCI-H522 lung
UACC-257 melanoma = system: UACC-257 melanoma
HT29 colon = system: HT29 colon
OVCAR-8 ovarian = system: OVCAR-8 ovarian
UACC-62 melanoma = system: UACC-62 melanoma
HCC-2998 colon = system: HCC-2998 colon
HCT-15 colon = system: HCT-15 colon
U251 CNS = system: U251 CNS
SNB-19 CNS = system: SNB-19 CNS
CAKI-1 renal = system: CAKI-1 renal
HCT-116 colon = system: HCT-116 colon
OVCAR-4 ovarian = system: OVCAR-4 ovarian
SF-539 CNS = system: SF-539 CNS
NCI/ADR-RES ovarian = system: NCI/ADR-RES ovarian
RPMI-8226 leukemia = system: RPMI-8226 leukemia
HS 578T breast = system: HS 578T breast
T-47D breast = system: T-47D breast
LOX IMVI melanoma = system: LOX IMVI melanoma
SR leukemia = system: SR leukemia
BT-549 breast = system: BT-549 breast
SF-268 CNS = system: SF-268 CNS
RXF 393 renal = system: RXF 393 renal
CCRF-CEM leukemia = system: CCRF-CEM leukemia
IGROV1 ovarian = system: IGROV1 ovarian
NCI-H460 lung = system: NCI-H460 lung
786-0 renal = system: 786-0 renal
A498 renal = system: A498 renal
PC-3 prostate = system: PC-3 prostate
HOP-92 NSCLC = system: HOP-92 NSCLC
NCI-H226 lung = system: NCI-H226 lung
MCF7 breast = system: MCF7 breast
SNB-75 CNS = system: SNB-75 CNS
ACHN renal = system: ACHN renal
DU-145 prostate = system: DU-145 prostate
SK-MEL-5 melanoma = system: SK-MEL-5 melanoma
MOLT-4 leukemia = system: MOLT-4 leukemia
MDA-MB-435 = system: MDA-MB-435
M14 melanoma = system: M14 melanoma
SK-OV-3 ovarian = system: SK-OV-3 ovarian
SW-620 colon = system: SW-620 colon
NCI-H23 lung = system: NCI-H23 lung
KM12 colon = system: KM12 colon
MDA-N = system: MDA-N
OVCAR-5 ovarian = system: OVCAR-5 ovarian
SF-295 CNS = system: SF-295 CNS
K-562 leukemia = system: K-562 leukemia
SN12C renal = system: SN12C renal
MALME-3M melanoma = system: MALME-3M melanoma
TK-10 renal = system: TK-10 renal
A549 NSCLC = system: A549 NSCLC
SK-MEL-2 melanoma = system: SK-MEL-2 melanoma
HOP-62 NSCLC = system: HOP-62 NSCLC
MDA-MB-231 breast = system: MDA-MB-231 breast
UO-31 renal = system: UO-31 renal

COc1nc(N)c(N=O)c(OCc2ccccc2)n1
TGI (EKVX NSCLC): > 10 µM
TGI (COLO 205 colon): 2.37 µM
TGI (HL-60(TB) leukemia): > 10 µM
TGI (OVCAR-3 ovarian): > 10 µM
TGI (SK-MEL-28 melanoma): > 10 µM
TGI (NCI-H522 lung): 3.59 µM
TGI (UACC-257 melanoma): > 10 µM
TGI (HT29 colon): > 10 µM
TGI (OVCAR-8 ovarian): > 10 µM
TGI (UACC-62 melanoma): > 10 µM
TGI (HCC-2998 colon): > 10 µM
TGI (HCT-15 colon): > 10 µM
TGI (U251 CNS): > 10 µM
TGI (SNB-19 CNS): > 10 µM
TGI (CAKI-1 renal): > 10 µM
TGI (HCT-116 colon): > 10 µM
TGI (OVCAR-4 ovarian): > 10 µM
TGI (SF-539 CNS): > 10 µM
TGI (NCI/ADR-RES ovarian): > 10 µM
TGI (RPMI-8226 leukemia): > 10 µM
TGI (HS 578T breast): > 10 µM
TGI (T-47D breast): 5.49 µM
TGI (LOX IMVI melanoma): > 10 µM
TGI (SR leukemia): > 10 µM
TGI (BT-549 breast): > 10 µM
TGI (SF-268 CNS): > 10 µM
TGI (RXF 393 renal): > 10 µM
TGI (CCRF-CEM leukemia): 6.84 µM
TGI (IGROV1 ovarian): > 10 µM
TGI (NCI-H460 lung): > 10 µM
TGI (786-0 renal): > 10 µM
TGI (A498 renal): > 10 µM
TGI (PC-3 prostate): > 10 µM
TGI (HOP-92 NSCLC): > 10 µM
TGI (NCI-H226 lung): > 10 µM
TGI (MCF7 breast): > 10 µM
TGI (SNB-75 CNS): > 10 µM
TGI (ACHN renal): > 10 µM
TGI (DU-145 prostate): > 10 µM
TGI (SK-MEL-5 melanoma): > 10 µM
TGI (MOLT-4 leukemia): > 10 µM
TGI (MDA-MB-435): > 10 µM
TGI (M14 melanoma): > 10 µM
TGI (SK-OV-3 ovarian): > 10 µM
TGI (SW-620 colon): 4.35 µM
TGI (NCI-H23 lung): > 10 µM
TGI (KM12 colon): > 10 µM
TGI (MDA-N): > 10 µM
TGI (OVCAR-5 ovarian): > 10 µM
TGI (SF-295 CNS): > 10 µM
TGI (K-562 leukemia): > 10 µM
TGI (SN12C renal): > 10 µM
TGI (MALME-3M melanoma): 5.97 µM
TGI (TK-10 renal): > 10 µM
TGI (A549 NSCLC): > 10 µM
TGI (SK-MEL-2 melanoma): > 10 µM
TGI (HOP-62 NSCLC): > 10 µM
TGI (MDA-MB-231 breast): > 10 µM

CC1NC(=O)[C@H](C)N(C)C(=O)[C@@H]2CCCN2C(=O)[C@@H](NC(=O)C(Cc2ccccc2)NC(=O)/C=C/C=C/C=C/C=C/C=C/C(=O)NC2=C(O)CCC2=O)COC(=O)[C@@H]2C[C@@H](C)CN2C1=O (stereo partly drawn) (X26-[ξF]SP[NMeA][ξA][Pro(4R-Me)]; ester 2-C)
TGI (EKVX NSCLC): > 100 µM
TGI (COLO 205 colon): > 100 µM
TGI (HL-60(TB) leukemia): > 100 µM
TGI (OVCAR-3 ovarian): > 100 µM
TGI (SK-MEL-28 melanoma): > 100 µM
TGI (NCI-H522 lung): > 100 µM
TGI (UACC-257 melanoma): > 100 µM
TGI (HT29 colon): > 100 µM
TGI (UACC-62 melanoma): > 100 µM
TGI (HCC-2998 colon): > 100 µM
TGI (HCT-15 colon): > 100 µM
TGI (U251 CNS): > 100 µM
TGI (SNB-19 CNS): > 100 µM
TGI (CAKI-1 renal): > 100 µM
TGI (HCT-116 colon): > 100 µM
TGI (OVCAR-4 ovarian): > 100 µM
TGI (SF-539 CNS): > 100 µM
TGI (NCI/ADR-RES ovarian): > 100 µM
TGI (RPMI-8226 leukemia): > 100 µM
TGI (HS 578T breast): > 100 µM
TGI (T-47D breast): > 100 µM
TGI (LOX IMVI melanoma): > 100 µM
TGI (SR leukemia): > 100 µM
TGI (BT-549 breast): > 100 µM
TGI (SF-268 CNS): > 100 µM
TGI (RXF 393 renal): > 100 µM
TGI (CCRF-CEM leukemia): > 100 µM
TGI (IGROV1 ovarian): > 100 µM
TGI (NCI-H460 lung): > 100 µM
TGI (786-0 renal): > 100 µM
TGI (A498 renal): > 100 µM
TGI (PC-3 prostate): > 100 µM
TGI (HOP-92 NSCLC): > 100 µM
TGI (MCF7 breast): > 100 µM
TGI (SNB-75 CNS): > 100 µM
TGI (ACHN renal): > 100 µM
TGI (DU-145 prostate): > 100 µM
TGI (SK-MEL-5 melanoma): > 100 µM
TGI (MDA-MB-435): > 100 µM
TGI (M14 melanoma): > 100 µM
TGI (SK-OV-3 ovarian): > 100 µM
TGI (SW-620 colon): > 100 µM
TGI (NCI-H23 lung): > 100 µM
TGI (KM12 colon): > 100 µM
TGI (MDA-N): > 100 µM
TGI (OVCAR-5 ovarian): > 100 µM
TGI (SF-295 CNS): > 100 µM
TGI (K-562 leukemia): > 100 µM
TGI (SN12C renal): > 100 µM
TGI (MALME-3M melanoma): > 100 µM
TGI (UO-31 renal): > 100 µM
TGI (TK-10 renal): > 100 µM
TGI (A549 NSCLC): > 100 µM
TGI (SK-MEL-2 melanoma): > 100 µM
TGI (HOP-62 NSCLC): > 100 µM
TGI (MDA-MB-231 breast): > 100 µM
